Data as given in patent US4728734A, “C-3'thioiminosulfonyl cephalosporin analogs” (American Home Products Corporation, priority 1985, dated 1988).
≈ marks a conversion by molar mass, not a printed value. Counter-ions that a name gives are not always drawn.

Columns and labels:
Assay type in all cases: cell-based
[1] = test system: Staphylococcus aureus ATCC 29213; assay: Antibacterial activity, agar dilution MIC, Staphylococcus aureus ATCC 29213; details: ATCC29213, 18 hours at 35° C.
Experimental: (§1) The compounds of the invention are tested for their antibacterial activity. The test is carried out as follows:
(§2) The organisms used in the test comprise the following:
(§3) Staphylococcus aureus (penicillin-sensitive and resistant), Pseudomonas aeruginosa, Escherichia coli, […] pneumoniae, Bordetella bronchiseptica, Proteus vulgaris, P. mirabilis, Acinetobacter calcoaceticus.
(§4) Test organisms may be added or deleted in order to reflect current clinical patterns of antibiotic susceptibility or shifts in pathogenic potential.
(§5) Organisms are normally grown for 18 hours in Brain Heart Infusion at 35° C. Cultures are adjusted with saline to MacFarland No. 1.5 standard prior to use.
(§6) Stock concentrations (e.g. 2,5000 μg or units per ml) are prepared in a suitable vehicle. Two-fold dilutions are made. One ml quantities of each dilution are incorporated in 9 ml of the appropriate agar (e.g. Seed) in sterile Petri plates. The hardened surface is inoculated with test organisms by use of a Steers replicating device. The plates are incubated (e.g. 18 hours at 35° C.) and activity is determined.

[2] = test system: Streptococcus faecalis ATCC 29212; assay: Antibacterial activity, agar dilution MIC, Streptococcus faecalis ATCC 29212; details: Enterococcus faecalis, ATCC29212, 18 hours at 35° C.
Experimental: as §1, §2, §3, §4, §5, §6

[3] = test system: Enterobacter cloacae ATCC 13047; assay: Antibacterial activity, agar dilution MIC, Enterobacter cloacae ATCC 13047; details: ATCC13047, 18 hours at 35° C.
Experimental: as §1, §2, §3, §4, §5, §6

[4] = test system: Escherichia coli ATCC 25922; assay: Antibacterial activity, agar dilution MIC, Escherichia coli ATCC 25922; details: ATCC25922, 18 hours at 35° C.
Experimental: as §1, §2, §3, §4, §5, §6

[5] = test system: Klebsiella pneunomiae KL-1; assay: Antibacterial activity, agar dilution MIC, Klebsiella pneunomiae KL-1; details: KL1, 18 hours at 35° C.
Experimental: as §1, §2, §3, §4, §5, §6

[6] = test system: Proteus vulgaris A 84354 1; assay: Antibacterial activity, agar dilution MIC, Proteus vulgaris A 84354 1; details: A843541, 18 hours at 35° C.
Experimental: as §1, §2, §3, §4, §5, §6

[7] = test system: Pseudomonas aeruginosa ATCC 27853; assay: Antibacterial activity, agar dilution MIC, Pseudomonas aeruginosa ATCC 27853; details: ATCC27853, 18 hours at 35° C.
Experimental: as §1, §2, §3, §4, §5, §6

[8] = test system: Serratia marcescens ATCC 13880; assay: Antibacterial activity, agar dilution MIC, Serratia marcescens ATCC 13880; details: ATCC13880, 18 hours at 35° C.
Experimental: as §1, §2, §3, §4, §5, §6

MIC [1] [µg/mL] | MIC [2] [µg/mL] | MIC [3] [µg/mL] | MIC [4] [µg/mL] | MIC [5] [µg/mL] | MIC [6] [µg/mL] | MIC [7] [µg/mL] | MIC [8] [µg/mL] | SMILES
128 (≈ 195 µM) | > 256 | > 256 | 8 (≈ 12.2 µM) | 2 (≈ 3.04 µM) | 2 (≈ 3.04 µM) | > 256 | 32 (≈ 48.7 µM) | CO/N=C(\C(=O)N[C@@H]1C(=O)N2C(C(=O)OC(C)(C)C)=C(CSC3=NS(=O)(=O)c4cscc43)CS[C@H]12)c1csc(N)n1 [Example 1 B., (6R,7R)-7[[(2-Amino-4-thiazolyl)(methoxyimino)acetyl]amino]-8-oxo-3-[(thieno[3,4-d]isothiazol-3-ylthio)methyl]-5-thia-1-azabicyclo[4.2.0]oct-2-ene-2-carboxylic acid 1,1-dimethylethyl ester S^3,S^3-dioxide]
32 | 256 | 32 | 2 | < 1 | < 1 | > 256 | 2 | CO/N=C(\C(=O)N[C@@H]1C(=O)N2C(C(=O)O)=C(CSC3=NS(=O)(=O)c4cscc43)CS[C@H]12)c1csc(N)n1 [Example 1 C., (6R,7R)-7-[[(2-Amino-4-thiazolyl)(methoxyimino)acetyl]amino]-8-oxo-3-[(thieno-[3,4-d]isothiazol-3-ylthio)methyl]-5-thia-1-azabicyclo[4.2.0]oct-2-ene-2-carboxylic acid S^3,S^3-dioxide, trifluoroacetate salt]
